In the NIST ThermoML archive (doi:10.1021/je900284z):
Where “and” joins values, the source holds several entries; their conditions need not be identical. Equal values may be shown once.

Details: Liquid; for viscosity: Falling or rolling sphere viscometry; for mass density: 101.33 kPa

CCCCC(CC)COC(=O)c1ccccc1 (stereo not drawn) [2-ethylhexyl benzoate]
Details | viscosity
263.15 K, 100 kPa | 29.42 mPa·s and 29.39 mPa·s
268.15 K, 100 kPa | 21.45 mPa·s and 21.43 mPa·s
273.15 K, 100 kPa | 16.21 mPa·s and 16.22 mPa·s
273.15 K, 700 kPa | 16.39 mPa·s
273.15 K, 14200 kPa | 20.88 mPa·s
273.15 K, 16100 kPa | 22.11 mPa·s
273.15 K, 29700 kPa | 28.8 mPa·s
273.15 K, 45500 kPa | 38.79 mPa·s
273.15 K, 47100 kPa | 39.5 mPa·s
273.15 K, 60900 kPa | 51.94 mPa·s
273.15 K, 81800 kPa | 78.37 mPa·s
273.15 K, 102000 kPa | 114.7 mPa·s
273.15 K, 110600 kPa | 132.5 mPa·s
273.15 K, 149800 kPa | 286.9 mPa·s
283.15 K, 100 kPa | 10.07 mPa·s
293.15 K, 100 kPa | 6.753 mPa·s and 6.756 mPa·s
298.15 K, 100 kPa | 5.574 mPa·s and 5.529 mPa·s
298.15 K, 300 kPa | 5.708 mPa·s
298.15 K, 900 kPa | 5.771 mPa·s
298.15 K, 26000 kPa | 8.4 mPa·s
298.15 K, 50900 kPa | 12.07 mPa·s
298.15 K, 75600 kPa | 17.19 mPa·s
298.15 K, 100800 kPa | 24.58 mPa·s
298.15 K, 125500 kPa | 34.9 mPa·s
298.15 K, 150900 kPa | 49.92 mPa·s
298.15 K, 175100 kPa | 70.34 mPa·s
298.15 K, 200700 kPa | 101 mPa·s
298.15 K, 225200 kPa | 143.1 mPa·s
298.15 K, 250700 kPa | 206 mPa·s
303.15 K, 100 kPa | 4.847 mPa·s
313.15 K, 100 kPa | 3.641 mPa·s and 3.644 mPa·s and 3.646 mPa·s
323.15 K, 100 kPa | 2.859 mPa·s and 2.857 mPa·s
323.15 K, 25900 kPa | 3.952 mPa·s
323.15 K, 50900 kPa | 5.32 mPa·s
323.15 K, 75800 kPa | 7.088 mPa·s
323.15 K, 100600 kPa | 9.368 mPa·s
323.15 K, 125700 kPa | 12.33 mPa·s
323.15 K, 150400 kPa | 16.17 mPa·s
323.15 K, 174800 kPa | 20.75 mPa·s
323.15 K, 175600 kPa | 21.33 mPa·s
323.15 K, 200800 kPa | 28.03 mPa·s
323.15 K, 225600 kPa | 36.82 mPa·s
323.15 K, 250400 kPa | 48.19 mPa·s
323.15 K, 275200 kPa | 62.86 mPa·s
323.15 K, 300000 kPa | 82.18 mPa·s
323.15 K, 300100 kPa | 82.04 mPa·s
333.15 K, 100 kPa | 2.3 mPa·s
343.15 K, 100 kPa | 1.834 mPa·s [middle of 5 runs]
348.15 K, 100 kPa | 1.728 mPa·s and 1.73 mPa·s
348.15 K, 10800 kPa | 1.956 mPa·s
348.15 K, 25400 kPa | 2.3 mPa·s
348.15 K, 50800 kPa | 2.994 mPa·s
348.15 K, 75900 kPa | 3.826 mPa·s
348.15 K, 100800 kPa | 4.842 mPa·s
348.15 K, 125700 kPa | 6.009 mPa·s
348.15 K, 150700 kPa | 7.634 mPa·s
348.15 K, 175700 kPa | 9.511 mPa·s
348.15 K, 200700 kPa | 11.85 mPa·s
348.15 K, 225700 kPa | 14.77 mPa·s
348.15 K, 250500 kPa | 18.23 mPa·s
348.15 K, 275300 kPa | 22.56 mPa·s
348.15 K, 276300 kPa | 22.83 mPa·s
348.15 K, 302300 kPa | 28.48 mPa·s
348.15 K, 315200 kPa | 31.58 mPa·s

Details | mass density [kg/m3]
273.15 K | 981.12
278.15 K | 977.18
283.15 K | 973.25
288.15 K | 969.32
293.15 K | 965.4
298.15 K | 961.49
303.15 K | 957.57
313.15 K | 949.73
323.15 K | 941.92
333.15 K | 934.11
343.15 K | 926.28
353.15 K | 918.45
363.15 K | 910.61

CCCCC(CC)COC(=O)c1ccccc1C(=O)OCC(CC)CCCC (stereo not drawn) [bis(2-ethylhexyl) 1,2-benzenedicarboxylate]
Details | viscosity
273.15 K, 100 kPa | 359.9 mPa·s and 359.7 mPa·s
273.15 K, 24100 kPa | 680.7 mPa·s
283.15 K, 100 kPa | 158 mPa·s and 158.6 mPa·s
283.15 K, 400 kPa | 160.2 mPa·s
283.15 K, 20800 kPa | 266.5 mPa·s
283.15 K, 41000 kPa | 430.5 mPa·s
283.15 K, 60000 kPa | 663.5 mPa·s
283.15 K, 80400 kPa | 1034 mPa·s
283.15 K, 100100 kPa | 1566 mPa·s
283.15 K, 123400 kPa | 2473 mPa·s
298.15 K, 100 kPa | 58.79 mPa·s and 57.58 mPa·s and 57.59 mPa·s
298.15 K, 600 kPa | 59.35 mPa·s
298.15 K, 25800 kPa | 103.4 mPa·s
298.15 K, 50000 kPa | 167.4 mPa·s
298.15 K, 50900 kPa | 174.2 mPa·s
298.15 K, 76300 kPa | 287.8 mPa·s
298.15 K, 100500 kPa | 455.2 mPa·s
298.15 K, 126600 kPa | 730.7 mPa·s
298.15 K, 150400 kPa | 1103 mPa·s
298.15 K, 174300 kPa | 1631 mPa·s
298.15 K, 199800 kPa | 2527 mPa·s
303.15 K, 100 kPa | 44.29 mPa·s and 44.2 mPa·s and 43.49 mPa·s
310.93 K, 100 kPa | 28.88 mPa·s [middle of 4 runs]
310.93 K, 47400 kPa | 73.56 mPa·s
310.93 K, 75300 kPa | 120.3 mPa·s
310.93 K, 99500 kPa | 185.1 mPa·s
310.93 K, 148600 kPa | 413.1 mPa·s
310.93 K, 176000 kPa | 617.9 mPa·s
310.93 K, 201800 kPa | 912.7 mPa·s
310.93 K, 223800 kPa | 1259 mPa·s
310.93 K, 247800 kPa | 1794 mPa·s
310.93 K, 250800 kPa | 1819 mPa·s
310.93 K, 274000 kPa | 2555 mPa·s
313.15 K, 100 kPa | 26.6 mPa·s and 26.58 mPa·s
323.15 K, 100 kPa | 17.17 mPa·s and 17.01 mPa·s and 17.1 mPa·s
323.15 K, 700 kPa | 17.26 mPa·s
323.15 K, 10600 kPa | 20.76 mPa·s
323.15 K, 25700 kPa | 27.26 mPa·s
323.15 K, 50700 kPa | 42.19 mPa·s
323.15 K, 75600 kPa | 63.74 mPa·s
323.15 K, 100600 kPa | 94.67 mPa·s
323.15 K, 125600 kPa | 138.7 mPa·s
323.15 K, 150600 kPa | 200.2 mPa·s
323.15 K, 175600 kPa | 286.3 mPa·s
323.15 K, 200300 kPa | 403.4 mPa·s
323.15 K, 223100 kPa | 539 mPa·s
323.15 K, 252300 kPa | 794.8 mPa·s
323.15 K, 276700 kPa | 1055.1 mPa·s
323.15 K, 295400 kPa | 1355.1 mPa·s
323.15 K, 323700 kPa | 1952.3 mPa·s
333.15 K, 100 kPa | 11.73 mPa·s and 11.71 mPa·s
343.15 K, 100 kPa | 8.499 mPa·s and 8.51 mPa·s
348.15 K, 100 kPa | 7.416 mPa·s and 7.422 mPa·s
348.15 K, 50800 kPa | 15.52 mPa·s
348.15 K, 54100 kPa | 16.45 mPa·s
348.15 K, 75900 kPa | 22.09 mPa·s
348.15 K, 100800 kPa | 30.91 mPa·s
348.15 K, 103500 kPa | 32.17 mPa·s
348.15 K, 125800 kPa | 42.61 mPa·s
348.15 K, 150800 kPa | 58.12 mPa·s
348.15 K, 175700 kPa | 78.72 mPa·s
348.15 K, 200700 kPa | 105.6 mPa·s
348.15 K, 225500 kPa | 140.4 mPa·s
348.15 K, 250300 kPa | 185.6 mPa·s
348.15 K, 275000 kPa | 243.8 mPa·s
348.15 K, 299100 kPa | 316.7 mPa·s
348.15 K, 324100 kPa | 412.7 mPa·s
348.15 K, 348100 kPa | 529.4 mPa·s
348.15 K, 371000 kPa | 669 mPa·s

Details | mass density [kg/m3]
273.15 K | 998.82
278.15 K | 995.01
283.15 K | 991.26
293.15 K | 983.87
298.15 K | 980.15
303.15 K | 976.42
313.15 K | 968.98
323.15 K | 961.53
333.15 K | 954.11
343.15 K | 946.68
353.15 K | 939.27
363.15 K | 931.85
